Calls of active or inactive are those of the source. The calls are words filed in the database; no cut-off is given here.
Legend:
Type in all cases: functional
HOP-62 = assay: Growth inhibition of human HOP62 cells after 48 hrs by cell counting analysis; conditions: at 10 µM
SK-MEL-28 = assay: Growth inhibition of human SK-MEL-28 cells after 48 hrs by cell counting analysis; conditions: at 10 µM
[1] = Antiproliferative activity against human ovarian cancer cells after 48 hrs by cell counting analysis; conditions: Cancer cell lines
SNB-75 = assay: Growth inhibition of human SNB75 cells after 48 hrs by cell counting analysis; conditions: at 10 µM
SR = assay: Growth inhibition of human SR cells after 48 hrs by cell counting analysis; conditions: at 10 µM
[2] = Antiproliferative activity against human prostate cancer cells after 48 hrs by cell counting analysis; conditions: Cancer cell lines
NCI-H23 = assay: Growth inhibition of human NCI-H23 cells after 48 hrs by cell counting analysis
MDA-MB-435 = assay: Growth inhibition of human MDA-MB-435 cells after 48 hrs by cell counting analysis; conditions: at 10 µM
A549 = assay: Growth inhibition of human A549 cells after 48 hrs by cell counting analysis; conditions: at 10 µM
MDA-MB-468 = assay: Growth inhibition of human MDA-MB-468 cells after 48 hrs by cell counting analysis
BT-549 = assay: Growth inhibition of human BT549 cells after 48 hrs by cell counting analysis; conditions: at 10 µM
HOP-92 = assay: Growth inhibition of human HOP92 cells after 48 hrs by cell counting analysis; conditions: at 10 µM
OVCAR-8 = assay: Growth inhibition of human OVCAR8 cells after 48 hrs by cell counting analysis; conditions: at 10 µM
NCI-H226 = assay: Growth inhibition of human NCI-H226 cells after 48 hrs by cell counting analysis; conditions: at 10 µM
SNB-19 = assay: Growth inhibition of human SNB19 cells after 48 hrs by cell counting analysis; conditions: at 10 µM
SF-539 = assay: Growth inhibition of human SF539 cells after 48 hrs by cell counting analysis; conditions: at 10 µM
ACHN = assay: Growth inhibition of human ACHN cells after 48 hrs by cell counting analysis; conditions: at 10 µM
[3] = Antiproliferative activity against human leukemia cells after 48 hrs by cell counting analysis
[4] = Antiproliferative activity against human non-small cell lung cancer cells after 48 hrs by cell counting analysis; conditions: Cancer cell lines
LOX IMVI = assay: Growth inhibition of human LOXIMVI cells after 48 hrs by cell counting analysis; conditions: at 10 µM
RXF 393 = assay: Growth inhibition of human RXF393 cells after 48 hrs by cell counting analysis; conditions: at 10 µM
KM12 = assay: Growth inhibition of human KM12 cells after 48 hrs by cell counting analysis; conditions: at 10 µM
M14 = assay: Growth inhibition of human M14 cells after 48 hrs by cell counting analysis; conditions: at 10 µM
OVCAR-4 = assay: Growth inhibition of human OVCAR4 cells after 48 hrs by cell counting analysis; conditions: at 10 µM
HL-60 = assay: Growth inhibition of human HL60 cells after 48 hrs by cell counting analysis; conditions: at 10 µM
[5] = Antiproliferative activity against human colon cancer cells after 48 hrs by cell counting analysis; conditions: Cancer cell lines
[6] = Antiproliferative activity against human breast cancer cells after 48 hrs by cell counting analysis; conditions: Cancer cell lines
OVCAR-3 = assay: Growth inhibition of human OVCAR3 cells after 48 hrs by cell counting analysis; conditions: at 10 µM
SK-MEL-5 = assay: Growth inhibition of human SK-MEL-5 cells after 48 hrs by cell counting analysis; conditions: at 10 µM
HCT-116 = assay: Growth inhibition of human HCT116 cells after 48 hrs by cell counting analysis; conditions: at 10 µM
IGROV-1 = assay: Growth inhibition of human IGROV1 cells after 48 hrs by cell counting analysis; conditions: at 10 µM
SW-620 = assay: Growth inhibition of human SW620 cells after 48 hrs by cell counting analysis; conditions: at 10 µM
[7] = Antiproliferative activity against human renal cancer cells after 48 hrs by cell counting analysis; conditions: Cancer cell lines
[8] = Antiproliferative activity against human CNS cancer cells after 48 hrs by cell counting analysis; conditions: Cancer cell lines
SF-295 = assay: Growth inhibition of human SF295 cells after 48 hrs by cell counting analysis; conditions: at 10 µM
CAKI-1 = assay: Growth inhibition of human Caki1 cells after 48 hrs by cell counting analysis; conditions: at 10 µM
Malme-3M = assay: Growth inhibition of human MALME-3M cells after 48 hrs by cell counting analysis; conditions: at 10 µM
NCI-H522 = assay: Growth inhibition of human NCI-H522 cells after 48 hrs by cell counting analysis; conditions: at 10 µM
T47D = assay: Growth inhibition of human T47D cells after 48 hrs by cell counting analysis; conditions: at 10 µM
K562 = assay: Growth inhibition of human K562 cells after 48 hrs by cell counting analysis; conditions: at 10 µM
CCRF-CEM = assay: Growth inhibition of human CCRF-CEM cells after 48 hrs by cell counting analysis; conditions: at 10 µM
[9] = Growth inhibition of human NCI-322M cells after 48 hrs by cell counting analysis; conditions: at 10 µM
SK-MEL-2 = assay: Growth inhibition of human SK-MEL-2 cells after 48 hrs by cell counting analysis; conditions: at 10 µM
SN12C = assay: Growth inhibition of human SN12C cells after 48 hrs by cell counting analysis; conditions: at 10 µM
U-251 = assay: Growth inhibition of human U251 cells after 48 hrs by cell counting analysis; conditions: at 10 µM
MDA-MB-231 = assay: Growth inhibition of human MDA-MB-231 cells after 48 hrs by cell counting analysis; conditions: at 10 µM
OVCAR-5 = assay: Growth inhibition of human OVCAR5 cells after 48 hrs by cell counting analysis; conditions: at 10 µM
[10] = Growth inhibition of human NCI-ADR-RES cells after 48 hrs by cell counting analysis; conditions: at 10 µM
SK-OV-3 = assay: Growth inhibition of human SKOV3 cells after 48 hrs by cell counting analysis; conditions: at 10 µM
UACC-257 = assay: Growth inhibition of human UACC257 cells after 48 hrs by cell counting analysis; conditions: at 10 µM
HCC 2998 = assay: Growth inhibition of human HCC2998 cells after 48 hrs by cell counting analysis; conditions: at 10 µM
HT-29 = assay: Growth inhibition of human HT-29 cells after 48 hrs by cell counting analysis; conditions: at 10 µM
SF-268 = assay: Growth inhibition of human SF268 cells after 48 hrs by cell counting analysis; conditions: at 10 µM
MOLT-4 = assay: Growth inhibition of human MOLT4 cells after 48 hrs by cell counting analysis; conditions: at 10 µM
[11] = Antiproliferative activity against human melanoma cells after 48 hrs by cell counting analysis
TK-10 = assay: Growth inhibition of human TK10 cells after 48 hrs by cell counting analysis
PC-3 = assay: Growth inhibition of human PC3 cells after 48 hrs by cell counting analysis; conditions: at 10 µM
EKVX = assay: Growth inhibition of human EKVX cells after 48 hrs by cell counting analysis; conditions: at 10 µM
UACC-62 = assay: Growth inhibition of human UACC62 cells after 48 hrs by cell counting analysis; conditions: at 10 µM
MCF7 = assay: Growth inhibition of human MCF7 cells after 48 hrs by cell counting analysis; conditions: at 10 µM
RPMI-8226 = assay: Growth inhibition of human RPMI8226 cells after 48 hrs by cell counting analysis; conditions: at 10 µM
HCT-15 = assay: Growth inhibition of human HCT15 cells after 48 hrs by cell counting analysis; conditions: at 10 µM
UO-31 = assay: Growth inhibition of human UO31 cells after 48 hrs by cell counting analysis; conditions: at 10 µM
[12] = read-out: LC50 (the source's name)

With `Cc1ccc(-c2csc(NC(=O)CCCl)n2)cc1` the “growth inhibition (GI)” value (HOP-62) was 16.2%, the “growth inhibition (GI)” value (SK-MEL-28) was 31% and the GI50 [1] was 4.8 µM. The TGI [1] was 31.3 µM, the CC50 [1, 12] was 61.1 µM and the “growth inhibition (GI)” value (SNB-75) was 34.6%. For the same molecule, the “growth inhibition (GI)” value (SR) was 88.5%, the GI50 [2] was 3.8 µM and the TGI [2] was 16.8 µM. For the same molecule, the CC50 [2, 12] was 63.4 µM, the “growth inhibition (GI)” value (NCI-H23) was “Active” and the “growth inhibition (GI)” value (MDA-MB-435) was 36.9%. The “growth inhibition (GI)” value (A549) was 77.3%, the “growth inhibition (GI)” value (MDA-MB-468) was “Active” and the “growth inhibition (GI)” value (BT-549) was 72.3%. The “growth inhibition (GI)” value (HOP-92) was 50.5%, the “growth inhibition (GI)” value (OVCAR-8) was 60.6% and the “growth inhibition (GI)” value (NCI-H226) was 22%. The “growth inhibition (GI)” value (SNB-19) was 73.1%, the “growth inhibition (GI)” value (SF-539) was 25.2% and the “growth inhibition (GI)” value (ACHN) was 45.1%. It also gave a GI50 [3] of 2 µM, a TGI [3] of 21.5 µM and a CC50 [3, 12] greater than 100 µM. For the same molecule, the GI50 [4] was 6.3 µM, the TGI [4] was 20.3 µM and the CC50 [4, 12] was 61.5 µM. For the same molecule, the “growth inhibition (GI)” value (LOX IMVI) was 45.1%, the “growth inhibition (GI)” value (RXF 393) was 43.8% and the “growth inhibition (GI)” value (KM12) was 82.4%. For the same molecule, the “growth inhibition (GI)” value (M14) was 56.1%, the “growth inhibition (GI)” value (OVCAR-4) was 81.5% and the “growth inhibition (GI)” value (HL-60) was 41.4%. For the same molecule, the GI50 [5] was 3.2 µM, the TGI [5] was 11.9 µM and the CC50 [5, 12] was 39.2 µM. For the same molecule, the GI50 [6] was 3.3 µM, the TGI [6] was 32.3 µM and the CC50 [6, 12] was 62.1 µM. For the same molecule, the “growth inhibition (GI)” value (OVCAR-3) was 45.3%, the “growth inhibition (GI)” value (SK-MEL-5) was 16.6% and the “growth inhibition (GI)” value (HCT-116) was 46.2%. The “growth inhibition (GI)” value (IGROV-1) was 63.1%, the “growth inhibition (GI)” value (SW-620) was 65.2% and the GI50 [7] was 2.8 µM. For the same molecule, the TGI [7] was 12.5 µM, the CC50 [7, 12] was 39.3 µM and the GI50 [8] was 4.8 µM. For the same molecule, the TGI [8] was 17.6 µM, the CC50 [8, 12] was 50.2 µM and the “growth inhibition (GI)” value (SF-295) was 30.2%. The “growth inhibition (GI)” value (CAKI-1) was 55.6%, the “growth inhibition (GI)” value (Malme-3M) was 29.1% and the “growth inhibition (GI)” value (NCI-H522) was 41%. For the same molecule, the “growth inhibition (GI)” value (T47D) was 55.2%, the “growth inhibition (GI)” value (K562) was 21.1% and the “growth inhibition (GI)” value (CCRF-CEM) was 88.3%. For the same molecule, the “growth inhibition (GI)” value [9] was 55.9%, the “growth inhibition (GI)” value (SK-MEL-2) was 54.2% and the “growth inhibition (GI)” value (SN12C) was 33.2%. For the same molecule, the “growth inhibition (GI)” value (U-251) was 48.5%, the “growth inhibition (GI)” value (MDA-MB-231) was 53.5% and the “growth inhibition (GI)” value (OVCAR-5) was 29.3%. The “growth inhibition (GI)” value [10] was 55.8%, the “growth inhibition (GI)” value (SK-OV-3) was 63% and the “growth inhibition (GI)” value (UACC-257) was 41.3%. The “growth inhibition (GI)” value (HCC 2998) was 22.5%, the “growth inhibition (GI)” value (HT-29) was 21% and the “growth inhibition (GI)” value (SF-268) was 46.3%. For the same molecule, the “growth inhibition (GI)” value (MOLT-4) was 43.3%, the GI50 [11] was 4.2 µM and the TGI [11] was 13.4 µM. For the same molecule, the CC50 [11, 12] was 44.3 µM, the “growth inhibition (GI)” value (TK-10) was “Active” and the “growth inhibition (GI)” value (PC-3) was 69.5%. The “growth inhibition (GI)” value (EKVX) was 50.3%, the “growth inhibition (GI)” value (UACC-62) was 41.8% and the “growth inhibition (GI)” value (MCF7) was 65.9%. The “growth inhibition (GI)” value (RPMI-8226) was 80.9%, the “growth inhibition (GI)” value (HCT-15) was 25.9% and the “growth inhibition (GI)” value (UO-31) was 61.3%.
